Assay results as given in patent US9132086B2, “Compositions for and methods of controlling olfactory responses to odorants” (Auburn University, priority 2006, dated 2015).

Key:
[1] = tested on: olfactory receptor neurons; assay: Whole-cell patch-clamp recording of single olfactory neurons; type: cell-based, rat; conditions: FIG. 7
Excerpt: FIG. 6 illustrates electrophysiological recordings from a rat olfactory epithelium and a single olfactory neuron where the stimulus was a 0.5-s pulse of air or an odorant mixture. The odorant concentration was constant for all traces. […] Vapor of odorants were collected above the odorant solutions (in water) of concentrations shown. […] The stimulus was a 0.5 second pulse of odorant/zinc particle mixture. Downward direction indicates inward current.
FIG. 7 illustrates results from EGTA experiments and Zn^+2 ions experiments. […] It is widely known that EGTA binds multivalent metals. When Zn metal nanoparticles are bound by EGTA, the number of particles participating in olfactory signal transduction is reduced, and the odorant response is decreased. […] When the patch electrode is filled with a solution containing 500 pM EGTA, the odorant-evoked current changes markedly. Few minutes after beginning the perfusion, a progressive […] in the amplitude of the odorant triggered inward currents is noted.

rat olfactory epithelium = assay: EOG recording of rat olfactory epithelium, odorant puffs; type: cell-based; conditions: FIG. 7 chart 720; external perfusion of ZnCl2 solutions, same range of concentrations as nanoparticles (10^−9-10^−15 M)
Excerpt: The averaged activity of the receptor neuron to an odor can be measured by an electroolfactogram (EOG). In this process, fragments of olfactory epithelaia, either cultured or dissected from natural sources (e.g., mice and dogs), are placed in an EOG recording chamber with a buffer solution. The epithelial cilia are exposed. Electrodes are connected to the tissues through a patch-clamp amplifier to detect electrical activity of the olfactory epithelia. In general air puff or plums of an odorant mixture are applied over the olfactory epithelia through a small pipet or capillary, before and after being treated with the metal composition, described in detail below. The amplitude of the electrical signal to the amount of the odorant is plotted over time after the electrical signal is amplified and filtered.
FIG. 3C is a graph 370 showing amplitude plots 371, 373, 375 and 377 of Electroolfactogram recordings. In this case rat olfactory tissue was placed in an EOG recording chamber with a buffer solution and connected to electrodes through an amplifier. Air puffs or plumes of an odorant mixture are applied over the rat olfactory tissue and the electrical response was measured and the normalized peak amplitudes were plotted over time over time.
FIG. 5 illustrates EOG traces from rat olfactory epithelium. Responses were induced by air odorants and a mixture of odorants and zinc metal particles. […]

Row | Structure (SMILES) | effect on odorant response measured by patch-clamp ([1]; 500 pM perfused inside olfactory neurons) | dose dependence of the effect on odorant response ([1]; perfused inside olfactory neurons) | odorant response by olfactory receptor neurons (rat olfactory epithelium)
1 | O=C(O)CN(CCOCCOCCN(CC(=O)O)CC(=O)O)CC(=O)O [EGTA, ethylene glycol tetraacetic acid] | clearly inhibit odorant response | dose dependent | 
2 | [Zn+2] [Zn^+2 ions, ZnCl2] |  |  | reduced
